In brackets after ≈: the same amount, converted by molar mass.
What was measured:
Type in all cases: functional
Malme-3M = test: Growth inhibition of human MALME-3M cells incubated for 48 hrs by sulforhodamine B assay
[1] = Growth inhibition of human EKVX cells incubated for 48 hrs by sulforhodamine B assay
Pseudomonas aeruginosa = test: Antimicrobial activity against Pseudomonas aeruginosa ATCC 10145 incubated for 24 hrs by two-fold serial broth dilution method; conditions: ATCC 10145, 24 h
A498 = test: Growth inhibition of human A498 cells incubated for 48 hrs by sulforhodamine B assay; conditions: A498, 48 h
OVCAR-8 = test: Growth inhibition of human OVCAR8 cells incubated for 48 hrs by sulforhodamine B assay; conditions: OVCAR-8, 48 h
SF-268 = test: Growth inhibition of human SF268 cells at 10 uM incubated for 48 hrs by sulforhodamine B assay; conditions: SF-268, 48 h, read-out: GI
HL-60(TB) = test: Growth inhibition of human HL-60(TB) cells at 10 uM incubated for 48 hrs by sulforhodamine B assay; conditions: HL-60, 48 h, read-out: GI
Escherichia coli [2] = test: Antimicrobial activity against Escherichia coli ATCC 11775 incubated for 24 hrs followed by transfer of colonies to Muller-Hinton agar plate and measured after 18 hrs by two-fold serial broth dilution method
CCRF-CEM = test: Growth inhibition of human CCRF-CEM cells incubated for 48 hrs by sulforhodamine B assay
[3] = Growth inhibition of human MOLT4 cells at 10 uM incubated for 48 hrs by sulforhodamine B assay; conditions: MOLT-4, 48 h, read-out: GI
Candida albicans = test: Antimicrobial activity against Candida albicans DSM 70014 incubated for 48 hrs followed by transfer of colonies to Muller-Hinton agar plate and measured after 18 hrs by two-fold serial broth dilution method
PC-3 [4] = test: Growth inhibition of human PC3 cells incubated for 48 hrs by sulforhodamine B assay; conditions: PC-3, 48 h
UACC-62 = test: Growth inhibition of human UACC62 cells incubated for 48 hrs by sulforhodamine B assay; conditions: UACC-62, 48 h
U-251 [5] = test: Growth inhibition of human U251 cells at 10 uM incubated for 48 hrs by sulforhodamine B assay; conditions: U-251, 48 h, read-out: GI
Staphylococcus aureus [6] = test: Antimicrobial activity against Staphylococcus aureus DSM 1104 incubated at 37 degC for 24 hrs by cup diffusion method
K562 = test: Growth inhibition of human K562 cells at 10 uM incubated for 48 hrs by sulforhodamine B assay; conditions: K562, 48 h, read-out: GI
A549 = test: Growth inhibition of human A549 cells incubated for 48 hrs by sulforhodamine B assay; conditions: A549, 48 h
[7] = Growth inhibition of human RPMI8226 cells incubated for 48 hrs by sulforhodamine B assay; conditions: RPMI-8226, 48 h
MDA-MB-468 = test: Growth inhibition of human MDA-MB-468 cells incubated for 48 hrs by sulforhodamine B assay; conditions: MDA-MB-468, 48 h
SK-MEL-2 = test: Growth inhibition of human SK-MEL-2 cells incubated for 48 hrs by sulforhodamine B assay; conditions: SK-MEL-2, 48 h
M14 = test: Growth inhibition of human M14 cells incubated for 48 hrs by sulforhodamine B assay; conditions: M14, 48 h
TK-10 = test: Growth inhibition of human TK10 cells incubated for 48 hrs by sulforhodamine B assay; conditions: TK-10, 48 h
ACHN = test: Growth inhibition of human ACHN cells incubated for 48 hrs by sulforhodamine B assay
[8] = Growth inhibition of human EKVX cells at 10 uM incubated for 48 hrs by sulforhodamine B assay; conditions: read-out: GI
PC-3 [9] = test: Growth inhibition of human PC3 cells at 10 uM incubated for 48 hrs by sulforhodamine B assay; conditions: PC-3, 48 h, read-out: GI
HOP-62 = test: Growth inhibition of human HOP62 cells incubated for 48 hrs by sulforhodamine B assay; conditions: HOP-62, 48 h
SK-OV-3 = test: Growth inhibition of human SKOV3 cells incubated for 48 hrs by sulforhodamine B assay; conditions: SK-OV-3, 48 h
NCI-H226 = test: Growth inhibition of human NCI-H226 cells incubated for 48 hrs by sulforhodamine B assay; conditions: NCI-H226, 48 h
SR = test: Growth inhibition of human SR cells incubated for 48 hrs by sulforhodamine B assay
[10] = Growth inhibition of human RXF393 cells incubated for 48 hrs by sulforhodamine B assay; conditions: RXF 393, 48 h
Staphylococcus aureus [11] = test: Antimicrobial activity against Staphylococcus aureus DSM 1104 incubated for 24 hrs followed by transfer of colonies to Muller-Hinton agar plate and measured after 18 hrs by two-fold serial broth dilution method
HCT-116 = test: Growth inhibition of human HCT116 cells at 10 uM incubated for 48 hrs by sulforhodamine B assay; conditions: HCT-116, 48 h, read-out: GI
U-251 [12] = test: Growth inhibition of human U251 cells incubated for 48 hrs by sulforhodamine B assay; conditions: U-251, 48 h
Escherichia coli [13] = test: Antimicrobial activity against Escherichia coli ATCC 11775 incubated for 24 hrs by two-fold serial broth dilution method; conditions: ATCC 11775, 24 h
[14] = Growth inhibition of human HOP92 cells incubated for 48 hrs by sulforhodamine B assay; conditions: HOP-92, 48 h
UO-31 = test: Growth inhibition of human UO31 cells incubated for 48 hrs by sulforhodamine B assay; conditions: UO-31, 48 h
[15] = Growth inhibition of human SF295 cells incubated for 48 hrs by sulforhodamine B assay; conditions: SF-295, 48 h
[16] = Growth inhibition of human RPMI8226 cells at 10 uM incubated for 48 hrs by sulforhodamine B assay; conditions: RPMI-8226, 48 h, read-out: GI
[17] = Growth inhibition of human COLO205 cells incubated for 48 hrs by sulforhodamine B assay; conditions: COLO 205, 48 h

With `Clc1ccccc1-c1nnc2c(Cc3ccccc3)nc3ccccc3n12` as the molecule, how does the GI50 (Malme-3M) read?
The GI50 was 23.8 µM.

What about the GI50 [1] of the same molecule?
Its GI50 is 5.96 µM.

And the MIC (Pseudomonas aeruginosa)?
The MIC was 50 µg/mL (≈ 135 µM).

And the GI50 (A498)?
The GI50 was 1.8 µM.

What about the GI50 (OVCAR-8) of the same molecule?
Its GI50 is 7.21 µM.

What about the inhibition of growth at 10 µM (SF-268) of the same molecule?
Its inhibition of growth at 10 µM is 47.5%.

What about the inhibition of growth at 10 µM (HL-60(TB)) of the same molecule?
Its inhibition of growth at 10 µM is 46.4%.

What about the MBC (Escherichia coli [2]) of the same molecule?
Its MBC is 50 µg/mL (≈ 135 µM).

What about the GI50 (CCRF-CEM) of the same molecule?
Its GI50 is 7.11 µM.

What about the inhibition of growth at 10 µM [3] of the same molecule?
The inhibition of growth at 10 µM was 60.4%.

And the MFC (Candida albicans)?
Its MFC is 200 µg/mL (≈ 539 µM).

What about the GI50 (PC-3 [4]) of the same molecule?
Its GI50 is 5.19 µM.

And the GI50 (UACC-62)?
The GI50 was 7.96 µM.

What about the inhibition of growth at 10 µM (U-251 [5]) of the same molecule?
Its inhibition of growth at 10 µM is 57.2%.

What about the “inhibition zone (IZ)” value (Staphylococcus aureus [6]) of the same molecule?
The value was 12 mm.

What about the inhibition of growth at 10 µM (K562) of the same molecule?
The inhibition of growth at 10 µM was 78.6%.

What about the GI50 (A549) of the same molecule?
Its GI50 is 8.77 µM.

And the GI50 [7]?
Its GI50 is 5.64 µM.

What about the GI50 (MDA-MB-468) of the same molecule?
Its GI50 is 5.55 µM.

And the GI50 (SK-MEL-2)?
The GI50 was 55.8 µM.

What about the GI50 (M14) of the same molecule?
The GI50 was 36.7 µM.

What about the GI50 (TK-10) of the same molecule?
The GI50 was 37.4 µM.

And the GI50 (ACHN)?
Its GI50 is 34.1 µM.

And the inhibition of growth at 10 µM [8]?
The inhibition of growth at 10 µM was 48.1%.

And the inhibition of growth at 10 µM (PC-3 [9])?
Its inhibition of growth at 10 µM is 60.9%.

And the GI50 (HOP-62)?
The GI50 was 12.4 µM.

And the GI50 (SK-OV-3)?
The GI50 was 23.9 µM.

And the GI50 (NCI-H226)?
The GI50 was 9.96 µM.

What about the GI50 (SR) of the same molecule?
Its GI50 is 3.91 µM.

And the GI50 [10]?
The GI50 was 8.45 µM.

And the MBC (Staphylococcus aureus [11])?
The MBC was 200 µg/mL (≈ 539 µM).

What about the inhibition of growth at 10 µM (HCT-116) of the same molecule?
The inhibition of growth at 10 µM was 65.9%.

And the GI50 (U-251 [12])?
The GI50 was 5.18 µM.

What about the MIC (Escherichia coli [13]) of the same molecule?
The MIC was 25 µg/mL (≈ 67.4 µM).

What about the GI50 [14] of the same molecule?
The GI50 was 3.45 µM.

And the GI50 (UO-31)?
The GI50 was 25 µM.

What about the GI50 [15] of the same molecule?
Its GI50 is 12.3 µM.

What about the inhibition of growth at 10 µM [16] of the same molecule?
The inhibition of growth at 10 µM was 63.8%.

And the GI50 [17]?
Its GI50 is 8.77 µM.

From ChEMBL document CHEMBL3621157, “Design, synthesis and biological evaluation of novel 1,2,4-triazolo and 1,2,4-triazino[4,3-a]quinoxalines as potential anticancer and antimicrobial agents” (2015)
